Experimental data published in ChEMBL document CHEMBL4715697, “Synthesis and biological activity of benzamide DNA minor groove binders” (2016).

Key:
[1] = tested on: Poly(dA-dT)oligonucleotide; assay: Binding affinity to minor groove of poly(dA:dT) dsDNA (unknown origin) assessed as change in melting temperature by UV-vis spectrophotometry based DNA melting assay; format: nucleic-acid assay
[2] = tested on: Poly(dA-dT)oligonucleotide; assay: Displacement of ethidium bromide from minor groove of poly(dA:dT) dsDNA (unknown origin) by fluorescence spectrophotometry; format: nucleic-acid assay
[3] = tested on: HL-60(TB); assay: Growth inhibition of human HL-60(TB) cells assessed as cell growth at 0.01 uM incubated for 48 hrs by sulforhodamine B assay relative to control; format: functional; details: read-out: Activity
[4] = tested on: HCT-15; assay: Growth inhibition of human HCT-15 cells assessed as cell growth at 0.01 uM incubated for 48 hrs by sulforhodamine B assay relative to control; format: functional; details: read-out: Activity
[5] = tested on: SF-268; assay: Growth inhibition of human SF-268 cells assessed as cell growth at 0.1 uM incubated for 48 hrs by sulforhodamine B assay relative to control; format: functional; details: read-out: Activity
[6] = tested on: EKVX; assay: Growth inhibition of human EKVX cells assessed as cell growth at 1 uM incubated for 48 hrs by sulforhodamine B assay relative to control; format: functional; details: read-out: Activity
[7] = tested on: U-251; assay: Growth inhibition of human U-251 cells assessed as cell growth at 1 uM incubated for 48 hrs by sulforhodamine B assay relative to control; format: functional; details: read-out: Activity
[8] = tested on: SK-MEL-5; assay: Growth inhibition of human SK-MEL-5 cells assessed as cell growth at 1 uM incubated for 48 hrs by sulforhodamine B assay relative to control; format: functional; details: read-out: Activity
[9] = tested on: OVCAR-3; assay: Growth inhibition of human OVCAR-3 cells assessed as cell growth at 1 uM incubated for 48 hrs by sulforhodamine B assay relative to control; format: functional; details: read-out: Activity
[10] = tested on: MDA-MB-231; assay: Growth inhibition of human MDA-MB-231 cells assessed as cell growth at 1 uM incubated for 48 hrs by sulforhodamine B assay relative to control; format: functional; details: read-out: Activity
[11] = tested on: BT-549; assay: Growth inhibition of human BT-549 cells assessed as cell growth at 1 uM incubated for 48 hrs by sulforhodamine B assay relative to control; format: functional; details: read-out: Activity
[12] = tested on: HL-60(TB); assay: Growth inhibition of human HL-60(TB) cells assessed as cell growth at 10 uM incubated for 48 hrs by sulforhodamine B assay relative to control; format: functional; details: read-out: Activity
[13] = tested on: EKVX; assay: Growth inhibition of human EKVX cells assessed as cell growth at 10 uM incubated for 48 hrs by sulforhodamine B assay relative to control; format: functional; details: read-out: Activity
[14] = tested on: NCI-H226; assay: Growth inhibition of human NCI-H226 cells assessed as cell growth at 10 uM incubated for 48 hrs by sulforhodamine B assay relative to control; format: functional; details: read-out: Activity
[15] = tested on: NCI-H322M; assay: Growth inhibition of human NCI-H322M cells assessed as cell growth at 10 uM incubated for 48 hrs by sulforhodamine B assay relative to control; format: functional; details: read-out: Activity
[16] = tested on: COLO 205; assay: Growth inhibition of human COLO 205 cells assessed as cell growth at 10 uM incubated for 48 hrs by sulforhodamine B assay relative to control; format: functional; details: read-out: Activity
[17] = tested on: KM12; assay: Growth inhibition of human KM12 cells assessed as cell growth at 10 uM incubated for 48 hrs by sulforhodamine B assay relative to control; format: functional; details: read-out: Activity
[18] = tested on: SF-295; assay: Growth inhibition of human SF-295 cells assessed as cell growth at 10 uM incubated for 48 hrs by sulforhodamine B assay relative to control; format: functional; details: read-out: Activity
[19] = tested on: SF-539; assay: Growth inhibition of human SF-539 cells assessed as cell growth at 10 uM incubated for 48 hrs by sulforhodamine B assay relative to control; format: functional; details: read-out: Activity
[20] = tested on: SNB-19; assay: Growth inhibition of human SNB-19 cells assessed as cell growth at 10 uM incubated for 48 hrs by sulforhodamine B assay relative to control; format: functional; details: read-out: Activity
[21] = tested on: Malme-3M; assay: Growth inhibition of human Malme-3M cells assessed as cell growth at 10 uM incubated for 48 hrs by sulforhodamine B assay relative to control; format: functional; details: read-out: Activity
[22] = tested on: SK-MEL-2; assay: Growth inhibition of human SK-MEL-2 cells assessed as cell growth at 10 uM incubated for 48 hrs by sulforhodamine B assay relative to control; format: functional; details: read-out: Activity
[23] = tested on: SK-MEL-28; assay: Growth inhibition of human SK-MEL-28 cells assessed as cell growth at 10 uM incubated for 48 hrs by sulforhodamine B assay relative to control; format: functional; details: read-out: Activity
[24] = tested on: OVCAR-4; assay: Growth inhibition of human OVCAR-4 cells assessed as cell growth at 10 uM incubated for 48 hrs by sulforhodamine B assay relative to control; format: functional; details: read-out: Activity
[25] = tested on: NCI/ADR-RES; assay: Growth inhibition of human NCI/ADR-RES cells assessed as cell growth at 10 uM incubated for 48 hrs by sulforhodamine B assay relative to control; format: functional; details: read-out: Activity
[26] = tested on: A498; assay: Growth inhibition of human A498 cells assessed as cell growth at 10 uM incubated for 48 hrs by sulforhodamine B assay relative to control; format: functional; details: read-out: Activity
[27] = tested on: MCF7; assay: Growth inhibition of human MCF7 cells assessed as cell growth at 10 uM incubated for 48 hrs by sulforhodamine B assay relative to control; format: functional; details: read-out: Activity
[28] = tested on: MDA-MB-231; assay: Growth inhibition of human MDA-MB-231 cells assessed as cell growth at 10 uM incubated for 48 hrs by sulforhodamine B assay relative to control; format: functional; details: read-out: Activity
[29] = tested on: Hs-578T; assay: Growth inhibition of human Hs-578T cells assessed as cell growth at 10 uM incubated for 48 hrs by sulforhodamine B assay relative to control; format: functional; details: read-out: Activity
[30] = tested on: T47D; assay: Growth inhibition of human T47D cells assessed as cell growth at 10 uM incubated for 48 hrs by sulforhodamine B assay relative to control; format: functional; details: read-out: Activity
[31] = tested on: NCI-H322M; assay: Growth inhibition of human NCI-H322M cells assessed as cell growth at 100 uM incubated for 48 hrs by sulforhodamine B assay relative to control; format: functional; details: read-out: Activity
[32] = tested on: LOX IMVI; assay: Growth inhibition of human LOX IMVI cells assessed as cell growth at 100 uM incubated for 48 hrs by sulforhodamine B assay relative to control; format: functional; details: read-out: Activity
[33] = tested on: SK-MEL-2; assay: Growth inhibition of human SK-MEL-2 cells assessed as cell growth at 100 uM incubated for 48 hrs by sulforhodamine B assay relative to control; format: functional; details: read-out: Activity
[34] = tested on: OVCAR-5; assay: Growth inhibition of human OVCAR-5 cells assessed as cell growth at 100 uM incubated for 48 hrs by sulforhodamine B assay relative to control; format: functional; details: read-out: Activity
[35] = tested on: T47D; assay: Growth inhibition of human T47D cells assessed as cell growth at 100 uM incubated for 48 hrs by sulforhodamine B assay relative to control; format: functional; details: read-out: Activity
[36] = tested on: SNB-19; assay: Growth inhibition of human SNB-19 cells incubated for 48 hrs by sulforhodamine B assay; format: functional
[37] = tested on: UACC-257; assay: Growth inhibition of human UACC-257 cells incubated for 48 hrs by sulforhodamine B assay; format: functional
[38] = tested on: OVCAR-4; assay: Growth inhibition of human OVCAR-4 cells incubated for 48 hrs by sulforhodamine B assay; format: functional

## CC(=O)Nc1cc(CO[Si](C)(C)C(C)(C)C)cc(NC(=O)c2ccc(C(=O)Nc3cccc(NC(=O)CCCN(C)C)c3)cc2)c1
[1]
  ΔTm: 47.2 °C
[2]
  C50: 5 µM
[3]
  growth at 0.01 µM: 102%
[4]
  growth at 0.01 µM: 93%
[5]
  growth at 0.1 µM: 100%
[6]
  growth at 1 µM: 89%
[7]
  growth at 1 µM: 91%
[8]
  growth at 1 µM: 98%
[9]
  growth at 1 µM: 109%
[10]
  growth at 1 µM: 106%
[11]
  growth at 1 µM: 99%
[12]
  growth at 10 µM: 81%
[13]
  growth at 10 µM: 91%
[14]
  growth at 10 µM: 85%
[15]
  growth at 10 µM: 102%
[16]
  growth at 10 µM: 98%
[17]
  growth at 10 µM: 95%
[18]
  growth at 10 µM: 95%
[19]
  growth at 10 µM: 89%
[20]
  growth at 10 µM: 100%
[21]
  growth at 10 µM: 88%
[22]
  growth at 10 µM: 102%
[23]
  growth at 10 µM: 87%
[24]
  growth at 10 µM: 85%
[25]
  growth at 10 µM: 88%
[26]
  growth at 10 µM: 77%
[27]
  growth at 10 µM: 77%
[28]
  growth at 10 µM: 99%
[29]
  growth at 10 µM: 111%
[30]
  growth at 10 µM: 73%
[31]
  growth at 100 µM: 74%
[32]
  growth at 100 µM: 84%
[33]
  growth at 100 µM: 87%
[34]
  growth at 100 µM: 79%
[35]
  growth at 100 µM: 58%
[36]; read-out: GI50
  GI50: > 75 µM
[36]; read-out: LC50 (the source's name)
  CC50: > 75 µM
[36]; read-out: TGI
  TGI: > 75 µM
[36]; read-out: pGI50 (converted)
  GI50: > 75.9 µM
[36]; read-out: pLC50 (the source's name) (converted)
  CC50: > 75.9 µM
[36]; read-out: pTGI
  TGI: > 75.9 µM
[37]; read-out: GI50
  GI50: > 75 µM
[37]; read-out: LC50
  LC50: > 75 µM
[37]; read-out: TGI
  TGI: > 75 µM
[37]; read-out: pGI50 (converted)
  GI50: > 75.9 µM
[37]; read-out: pLC50 (converted)
  LC50: > 75.9 µM
[37]; read-out: pTGI
  TGI: > 75.9 µM
[38]; read-out: GI50
  GI50: > 75 µM
[38]; read-out: LC50
  LC50 (concentration killing 50% of cells): > 75 µM
[38]; read-out: TGI
  TGI: > 75 µM
[38]; read-out: pGI50 (converted)
  GI50: > 75.9 µM
[38]; read-out: pLC50 (converted)
  LC50 (concentration killing 50% of cells): > 75.9 µM
[38]; read-out: pTGI
  TGI: > 75.9 µM
